Consider 51 molecules from patent US9884832B2 (priority 2011, dated 2018).

The target in the first assay is AM2 S31 (wild-type serine at position 31 in the M2 protein), influenza virus A/Udorn/72 (Influenza A virus, UniProt P0DOF5). Put plainly: cell-based. Particulars: 100 uM; Xenopus oocytes; activity range class; read-out: S31 OOcyte Inhibition at 100 uM (%).
Sequence of AM2 S31 (wild-type serine at position 31 in the M2 protein), influenza virus A/Udorn/72 (P0DOF5 whole entry, looked up): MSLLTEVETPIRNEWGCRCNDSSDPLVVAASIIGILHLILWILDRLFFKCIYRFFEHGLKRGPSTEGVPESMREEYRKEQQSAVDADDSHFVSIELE
Usually inhibition stands for the share of the control response that was lost under treatment. For the molecule `c1scc2[nH]c(CNC34CC5CC(CC(C5)C3)C4)nc12` [Example 171a, Adamantan-1-yl-(1H-thieno[3,4-d]imidazol-2-ylmethyl)-amine], the inhibition at 100 µM fell in the range of 0 to 30%. The same measure, in the same setting: next, `c1cc(-c2ccc(CNC34CC5CC(CC(C5)C3)C4)s2)[nH]n1` [Example 158a, N-((5-(1H-pyrazol-5-yl)thiophen-2-yl)methyl)adamantan-1-amine]: 0 to 30%; `c1cc(CNC23CC4CC(CC(C4)C2)C3)co1` [Example 66a, Adamantan-1-yl-furan-3-ylmethyl-amine]: 31 to 95%.

`Cc1cc(CNC23CC4CC(CC(C4)C2)C3)no1` [Example 95a, N-((5-methylisoxazol-3-yl)methyl)adamantan-1-amine]: the inhibition at 100 µM was 31 to 95%. Still for that read-out and setting: under `Oc1ccc2[nH]c(CNC34CC5CC(CC(C5)C3)C4)cc2c1` [Example 179a] stands 0 to 30%. Still for that read-out and setting: next, `Brc1nc(CNC23CC4CC(CC(C4)C2)C3)cs1` [Example 83a, N-((2-bromothiazol-4-yl)methyl)adamantan-1-amine]: 31 to 95%; `COc1ccc(-c2cc(CNC34CC5CC(CC(C5)C3)C4)on2)cc1` [Example 122a, N-((3-(4-methoxyphenyl)isoxazol-5-yl)methyl)adamantan-1-amine]: 0 to 30%. With `Oc1cc(-c2cccs2)ccc1CNC12CC3CC(CC(C3)C1)C2` [Example 49a], the inhibition at 100 µM lay in the range of 0 to 30%. On the same count and under the same terms, under `Cc1ncc(CN(Cc2cnc(C)s2)C23CC4CC(CC(C4)C2)C3)s1` [Example 202a, N,N-bis((2-methylthiazol-5-yl)methyl)adamantan-1-amine] stands 0 to 30%; under `OCc1cc(Br)ccc1CNC12CC3CC(CC(C3)C1)C2` [Example 52a, [2-(Adamantan-1-ylaminomethyl)-5-bromo-phenyl]methanol], 0 to 30%; under `Cc1oc(-c2cccs2)nc1CNC12CC3CC(CC(C3)C1)C2` [Example 145a, N-((5-methyl-2-(thiophen-2-yl)oxazol-4-yl)methyl)adamantan-1-amine], 0 to 30%. Still for that read-out and setting: next, `Cc1ccc(CNC23CC4CC(CC(C4)C2)C3)o1` [Example 67a]: 31 to 95%; `c1csc(-c2nnc(CNC34CC5CC(CC(C5)C3)C4)s2)c1` [Example 151a, N-((5-(thiophen-2-yl)-1,3,4-thiadiazol-2-yl)methyl)adamantan-1-amine]: 0 to 30%. Take `CC(NC12CC3CC(CC(C3)C1)C2)c1cc2ccccc2s1` (stereo not drawn) [Example 178a]: the inhibition at 100 µM lay within 31 to 95%. Still for that read-out and setting: under `c1csc(-c2ccc(CNC3C4CC5CC(C4)CC3C5)s2)c1` (stereo not drawn) [Example 205a, N-([2,2′-bithiophen]-5-ylmethyl)adamantan-2-amine] stands 0 to 30%. For the molecule `OC12CC3CC(C1)CC(NCc1cc4sccc4s1)(C3)C2` [Example 192a, 3-[(Thieno[3,2-b]thiophen-2-ylmethyl)-amino]-adamantan-1-ol], the inhibition at 100 µM lay within 0 to 30%.

For `OC1CCC(CNC23CC4CC(CC(C4)C2)C3)CC1` (stereo not drawn) [Example 170a, 4-(Adamantan-1-ylaminomethyl)-cyclohexanol], the inhibition at 100 µM lay within 0 to 30%. Same read-out and setting: next, `c1csc(CNC23CC4CC(CC(C4)C2)C3)c1` [Example 70a, Adamantan-1-yl-thiophen-2-ylmethyl-amine]: 31 to 95%. Turning to `Clc1ccc(COc2ccc(CNC34CC5CC(CC(C5)C3)C4)cc2)cc1` [Example 16a, Adamantan-1-yl-[4-(4-chloro-benzyloxy)-benzyl]-amine], the inhibition at 100 µM fell in the range of 31 to 95%. Same read-out and setting: under `C(NC12CC3CC(CC(C3)C1)C2)c1noc(C2CC2)n1` [Example 166a] stands 0 to 30%. For `COc1ccsc1CNC12CC3CC(CC(C3)C1)C2` [Example 74a, Adamantan-1-yl-(3-methoxy-thiophen-2-ylmethyl)-amine], the inhibition at 100 µM is 31 to 95%.

Regarding `Ic1ccc(CNC23CC4CC(CC(C4)C2)C3)s1` [Example 91a, N-((5-Iodothiophen-2-yl)methyl)adamantan-1-amine], the inhibition at 100 µM is 31 to 95%.

Still in this assay, the particulars now being: Table 1; 100 uM; Xenopus oocytes, pH 5.5, -20 mV; read-out: S31 OOcyte Inhibition at 100 uM (%).
Regarding `CSc1ccc(CNC23CC4CC(CC(C4)C2)C3)c(SC)c1` [Example 55, Adamantan-1-yl-(2,4-bis-methylsulfanyl-benzyl)-amine], the inhibition at 100 µM fell in the range of 0 to 30%. The same measure, in the same setting: under `Oc1ccc(CNC23CC4CC(CC(C4)C2)C3)c(O)c1O` [Example 65, 4-(Adamantan-1-ylaminomethyl)-benzene-1,2,3-triol] stands 0 to 30%; under `COC(=O)C(Cc1cnc[nH]1)NCC12CC3CC(CC(C3)C1)C2` (stereo not drawn) [Example 3, 2-[(Adamantan-1-ylmethyl)-amino]-3-(3H-imidazol-4-yl)-propionic acid methyl ester], 0 to 30%; under `CC1(C)CCC(NCc2ccc(O)cc2O)CC1` [Example 108, 4-[(4,4-Dimethyl-cyclohexylamino)-methyl]-benzene-1,3-diol], 31 to 95%. Same read-out and setting: next, `CC(=O)c1sccc1-c1ccc(CNC23CC4CC(CC(C4)C2)C3)cc1` [Example 43, 1-(3-(4-((Adamantan-1-ylamino)methyl)phenyl)thiophen-2-yl)ethanone]: 0 to 30%; `c1csc(-c2ccc(CNC34CC5CC(CC(C5)C3)C4)s2)c1` [Example 78, N-([2,2′-Bithiophen]-5-ylmethyl)adamantan-1-amine]: 0 to 30%; `c1ccc(CNC23CC4CC(CC(C4)C2)C3)nc1` [Example 72, Adamantan-1-yl-pyridin-2-ylmethyl-amine]: 0 to 30%. Same read-out and setting: next, `c1c(CNC23CC4CC(CC(C4)C2)C3)sc2c1CSC2` [Example 84, Adamantan-1-yl-(4,6-dihydro-thieno[3,4-b]thiophen-2-ylmethyl)-amine]: 31 to 95%; `c1ccc2sc(CNC34CC5CC(CC(C5)C3)C4)nc2c1` [Example 91, Adamantan-1-yl-benzothiazol-2-ylmethyl-amine]: 0 to 30%. For `FC(F)(F)Sc1ccc(CNC23CC4CC(CC(C4)C2)C3)cc1` [Example 26, Adamantan-1-yl-(4-trifluoromethylsulfanyl-benzyl)-amine], the inhibition at 100 µM is 0 to 30%. On the same count and under the same terms, next, `c1cc(COc2ccc(CNC34CC5CC(CC(C5)C3)C4)cc2)co1` [Example 22, Adamantan-1-yl-[4-(furan-3-ylmethoxy)-benzyl]-amine]: 31 to 95%.

As for `Oc1ccc(/C=N/C23CC4CC(CC(C4)C2)C3)c(O)c1` [Example 7], the inhibition at 100 µM was in the range of 31 to 95%. Turning to `Oc1ccc(CN2CC3CC4CC(C3)CC2C4)c(O)c1` [Example 116, 4-(4-Aza-tricyclo[4.3.1.13,8]undec-4-ylmethyl)-benzene-1,3-diol], the inhibition at 100 µM was 31 to 95%.

Consider `NC(=O)c1ccc(CNC23CC4CC(CC(C4)C2)C3)cc1` [Example 18, 4-(Adamantan-1-ylaminomethyl)-benzamide], for which the inhibition at 100 µM was 0 to 30%. Same read-out and setting: under `COc1ccc(CNC23CC4CC(CC(C4)C2)C3)cc1` [Example 16, Adamantan-1-yl-(4-methoxy-benzyl)-amine] stands 31 to 95%; under `Oc1cc(F)c(CNC23CC4CC(CC(C4)C2)C3)c(F)c1` [Example 69, 4-(Adamantan-1-ylaminomethyl)-3,5-difluoro-phenol], 31 to 95%.

The assay is the same for the next values; noted with them: Table 3; 100 uM; Xenopus oocytes, pH 5.5, -20 mV; read-out: S31 OOcyte Inhibition at 100 uM (%).
Take `Brc1ccsc1CNC12CC3CC(CC(C3)C1)C2` [Example 47b, N-((3-Bromothiophen-2-yl)methyl)adamantan-1-amine]: the inhibition at 100 µM lay in the range of 31 to 95%. Same read-out and setting: under `c1nc(N2CCOCC2)ncc1CNC12CC3CC(CC(C3)C1)C2` [Example 57b, N-((2-morpholinopyrimidin-5-yl)methyl)adamantan-1-amine] stands 0 to 30%; under `CSc1ccc(-c2cc(CNCC34CC5CC(CC(C5)C3)C4)no2)cc1` [Example 40b, 1-((3r,5r,7r)-adamantan-1-yl)-N-((5-(4-(methylthio)phenyl)isoxazol-3-yl)methyl)methanamine], 0 to 30%; under `Nc1ncc(CNC23CC4CC(CC(C4)C2)C3)s1` [Example 19b], 0 to 30%. `COc1ncc(CNC23CC4CC(CC(C4)C2)C3)c(OC)n1` [Example 64b, N-((2,4-dimethoxypyrimidin-5-yl)methyl)adamantan-1-amine]: the inhibition at 100 µM was in the range of 0 to 30%. Still for that read-out and setting: next, `COc1ccc(-c2noc(CNC34CC5CC(CC(C5)C3)C4)n2)cc1OC` [Example 35b, N-((3-(3,4-dimethoxyphenyl)-1,2,4-oxadiazol-5-yl)methyl)adamantan-1-amine]: 0 to 30%; `CSc1ccccc1-c1ccc(CNC23CC4CC(CC(C4)C2)C3)nc1` [Example 67b, Adamantan-1-yl-[5-(2-methylsulfanyl-phenyl)-pyridin-2-ylmethyl]-amine]: 31 to 95%. On the same count and under the same terms, under `Oc1cc(-c2ccco2)ccc1CNC12CC3CC(CC(C3)C1)C2` [Example 7b, 2-((-Adamantan-1-ylamino)methyl)-5-(furan-2-yl)phenol] stands 0 to 30%; under `C(#Cc1cccs1)CNC12CC3CC(CC(C3)C1)C2` [Example 88b], 0 to 30%. On the same count and under the same terms, under `OC12CC3CC(C1)CC(NCc1noc(C4CCCCC4)n1)(C3)C2` [Example 86b, (1s,3r,5R,7S)-3-(((5-cyclohexyl-1,2,4-oxadiazol-3-yl)methyl)amino)adamantan-1-ol] stands 0 to 30%; under `Oc1cc(Cl)ccc1CNC12CC3CC(CC(C3)C1)C2` [Example 9b, 2-((-Adamantan-1-ylamino)methyl)-5-chlorophenol], 31 to 95%.

As to `CSc1ccc(-c2cc(CNC34CC5CC(CC(C5)C3)C4)no2)cc1` [Example 37b, N-((5-(4-(methylthio)phenyl)isoxazol-3-yl)methyl)adamantan-1-amine], the inhibition at 100 µM was in the range of 0 to 30%. Still for that read-out and setting: under `CCSc1ncc(CNC23CC4CC(CC(C4)C2)C3)cn1` [Example 56b, N-((2-(ethylthio)pyrimidin-5-yl)methyl)adamantan-1-amine] stands 0 to 30%.
